The subject of series [1] is Mus musculus. Put plainly: Analgesic activity in ig dosed mouse by hot plate test. The format is functional. Particulars: po. (Thermal pain tests record how soon the animal reacts.)
Series [2] in a line: Therapeutic index, ratio of LD50 in Kunming mouse to ED50 for analgesic activity in mouse. Particulars: in vivo, read-out: Ratio LD50/ED50. The format is organism-based.
The nature of series [3]: Toxicity in ig dosed Kunming mouse. The format is organism-based. Conditions: in vivo, po.

One may read the ED50 as the dose that gives a 50% effect, or the effect in half of the subjects. A higher ED50 goes with weaker potency. The LD50 is the dose expected to kill half of the subjects tested. Low readings indicate a more toxic substance, high ones a less toxic substance. In turn, `CCN1C[C@]2(COC)[C@H](O)C[C@H](OC)[C@@]34[C@@H]5C[C@@]6(O)[C@H](OC(=O)c7ccccc7)[C@@H]5[C@@](OC(C)=O)([C@@H]([C@H](OC)[C@H]23)[C@@H]14)[C@@H](O)[C@@H]6OC` [ACONITINE] returned a median effective dose (ED50) in series [1] of 0.08 mg/kg. Besides, the selectivity ratio in series [2] was determined as 2. This compound also displayed a 50% lethal dose (LD50) in series [3] of 0.16 mg/kg.

`CCN1C[C@]2(COC)CC[C@H](OC)[C@@]34C1O[C@H](C=C1[C@H]5[C@@H](O)[C@H](C[C@H]53)[C@@H](OC)[C@H]1O)[C@H]24` [GUIWULINE] showed an ED50 in series [1] of 15 mg/kg. For the same compound, in series [2], the selectivity ratio is 33. In series [3], the LD50 turned out to be 500 mg/kg.

The values are drawn from ChEMBL document CHEMBL2040812, “A novel franchetine type norditerpenoid isolated from the roots of Aconitum carmichaeli Debx. with potential analgesic activity and less toxicity” (Bioorg Med Chem Lett, 2012).
